Results: paper PMC11271275, “The structural insight into the functional modulation of human anion exchanger 3” (Nature Communications, 2024)

How the values were obtained:
AE2 (human SLC4A2) [1] = target: T1, AE2 (human SLC4A2) (Homo sapiens, UniProt P04920); conditions: Cl-/HCO3- exchange; 25 mM NaHCO3, pH 7.4
T1 sequence (P04920 1-1241): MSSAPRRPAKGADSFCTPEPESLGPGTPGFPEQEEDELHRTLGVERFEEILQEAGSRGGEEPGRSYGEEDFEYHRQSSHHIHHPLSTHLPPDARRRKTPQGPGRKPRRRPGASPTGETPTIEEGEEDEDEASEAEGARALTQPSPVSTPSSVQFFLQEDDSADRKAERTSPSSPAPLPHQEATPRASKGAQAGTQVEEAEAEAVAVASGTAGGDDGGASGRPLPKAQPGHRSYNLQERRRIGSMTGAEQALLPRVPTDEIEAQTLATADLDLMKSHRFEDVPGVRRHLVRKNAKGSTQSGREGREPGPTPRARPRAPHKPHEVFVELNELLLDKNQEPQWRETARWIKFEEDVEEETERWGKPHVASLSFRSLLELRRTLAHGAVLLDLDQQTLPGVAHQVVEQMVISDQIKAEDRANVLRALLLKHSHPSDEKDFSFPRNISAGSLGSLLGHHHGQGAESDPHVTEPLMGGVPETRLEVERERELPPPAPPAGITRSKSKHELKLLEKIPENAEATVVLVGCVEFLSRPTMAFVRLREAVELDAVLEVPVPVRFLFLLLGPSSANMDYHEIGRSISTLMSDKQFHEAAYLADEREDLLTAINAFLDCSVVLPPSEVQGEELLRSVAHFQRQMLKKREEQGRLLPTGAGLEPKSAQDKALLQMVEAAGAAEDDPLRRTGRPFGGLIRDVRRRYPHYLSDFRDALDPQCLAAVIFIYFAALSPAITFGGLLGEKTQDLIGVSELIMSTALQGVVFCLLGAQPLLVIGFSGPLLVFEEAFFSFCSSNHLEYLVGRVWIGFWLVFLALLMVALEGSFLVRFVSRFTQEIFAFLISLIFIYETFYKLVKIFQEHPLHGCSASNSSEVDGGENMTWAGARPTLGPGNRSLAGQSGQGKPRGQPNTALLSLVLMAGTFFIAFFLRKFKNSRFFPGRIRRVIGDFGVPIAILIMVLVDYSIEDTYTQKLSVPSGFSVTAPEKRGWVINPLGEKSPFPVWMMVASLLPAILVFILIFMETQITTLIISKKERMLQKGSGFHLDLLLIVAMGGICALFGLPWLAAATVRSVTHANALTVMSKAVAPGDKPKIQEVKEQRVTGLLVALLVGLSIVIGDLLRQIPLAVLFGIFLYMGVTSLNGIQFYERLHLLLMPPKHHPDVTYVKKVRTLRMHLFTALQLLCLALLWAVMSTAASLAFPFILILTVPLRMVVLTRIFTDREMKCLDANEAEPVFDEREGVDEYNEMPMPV

[2] = target: hAE3^NTD2^TMD chimera (NTD of hAE3 fused to TMD of hAE2) (human) (UniProt P04920); assay: cryo-EM structure; hAE3^NTD2^TMD chimera in GDN; 300 kV Titan Krios, C2 symmetry; 3.35 Å; TMDs inward-facing
AE2 (human SLC4A2) [3] = target: T1, AE2 (human SLC4A2); assay: BCECF intracellular pH assay on Cl- reintroduction, SLC4A2-KO HEK293F cells; format: cell-based; design: overexpressed in SLC4A2-KO HEK293F cells; P04920-1 printed for the AE2 part of the chimera; conditions: 40 µM DIDS; 25 mM NaHCO3, pH 7.4
[4] = target: the molecule itself; assay: SEC + other: 200 kV cryo-EM analysis; Superose 6 Increase 10/300 GL, 150 mM NaCl, 20 mM HEPES pH 7.4, 0.01% GDN, 4 °C; protein solubilised with LMNG

O=C(O)O [HCO3^−]
BCECF intracellular pH assay on Cl- reintroduction, SLC4A2-KO HEK293F cells (AE2 (human SLC4A2) [1]): a lower pH-modulating function than that observed for AE2

hAE3^NTD2^TMD chimera (NTD of hAE3 fused to TMD of hAE2) (from UniProt P04920-1 672-1241)
stoichiometry N [2]: 2

O=S(=O)(O)c1cc(N=C=S)ccc1/C=C/c1ccc(N=C=S)cc1S(=O)(=O)O [DIDS, 4,4’-diisothiocyanatostilbene-2,2’-disulfonate]
inhibition at 40 μM (AE2 (human SLC4A2) [3]): activities of AE2 and AE3 could be inhibited by adding DIDS

B1: human anion exchanger 3, cardiac isoform (hAE3) (natural protein, UniProt P48751-1 300-1232, looked up)
chain: GLAPILRRKKKKKKLDRRPHEVFVELNELMLDRSQEPHWRETARWIKFEEDVEEETERWGKPHVASLSFRSLLELRRTIAHGAALLDLEQTTLPGIAHLVVETMIVSDQIRPEDRASVLRTLLLKHSHPNDDKDSGFFPRNPSSSSMNSVLGNHHPTPSHGPDGAVPTMADDLGEPAPLWPHDPDAKEKPLHMPGGDGHRGKSLKLLEKIPEDAEATVVLVGCVPFLEQPAAAFVRLNEAVLLESVLEVPVPVRFLFVMLGPSHTSTDYHELGRSIATLMSDKLFHEAAYQADDRQDLLSAISEFLDGSIVIPPSEVEGRDLLRSVAAFQRELLRKRREREQTKVEMTTRGGYTAPGKELSLELGGSEATPEDDPLLRTGSVFGGLVRDVRRRYPHYPSDLRDALHSQCVAAVLFIYFAALSPAITFGGLLGEKTEGLMGVSELIVSTAVLGVLFSLLGAQPLLVVGFSGPLLVFEEAFFKFCRAQDLEYLTGRVWVGLWLVVFVLALVAAEGSFLVRYISPFTQEIFAFLISLIFIYETFYKLYKVFTEHPLLPFYPPEGALEGSLDAGLEPNGSALPPTEGPPSPRNQPNTALLSLILMLGTFFIAFFLRKFRNSRFLGGKARRIIGDFGIPISILVMVLVDYSITDTYTQKLTVPTGLSVTSPDKRSWFIPPLGSARPFPPWMMVAAAVPALLVLILIFMETQITALIVSQKARRLLKGSGFHLDLLLIGSLGGLCGLFGLPWLTAATVRSVTHVNALTVMRTAIAPGDKPQIQEVREQRVTGVLIASLVGLSIVMGAVLRRIPLAVLFGIFLYMGVTSLSGIQLSQRLLLILMPAKHHPEQPYVTKVKTWRMHLFTCIQLGCIALLWVVKSTAASLAFPFLLLLTVPLRHCLLPRLFQDRELQALDSEDAEPNFDEDGQDEYNELHMPV
notes: Anion exchanger 3 (AE3, SLC4A3), human, cardiac isoform; amino acids 300-1232 by the numbering of UniProt P48751-1 (results); the methods name the cDNA as human Cardiac Anion Exchanger 3, UniProt P48751-2; the introduction says cAE3 lacks residues 1-296 of bAE3; A TEV protease site follows the N-terminal tags in the modified pCAGGS vector; no cleavage is described; The N-terminal domain was not …
stoichiometry N [4]: 2
